For orientation: IC50 means the concentration at which inhibition is half-maximal.

For this test, the target named is 20S proteasome (chymotrypsin-like activity) (Homo sapiens, UniProt P28074). The test is described as follows: fluorogenic Suc-LLVY-AMC peptidase assay with purified […] proteasome. The class given is biochemical.
Sequence of 20S proteasome (chymotrypsin-like activity) (P28074 60-263): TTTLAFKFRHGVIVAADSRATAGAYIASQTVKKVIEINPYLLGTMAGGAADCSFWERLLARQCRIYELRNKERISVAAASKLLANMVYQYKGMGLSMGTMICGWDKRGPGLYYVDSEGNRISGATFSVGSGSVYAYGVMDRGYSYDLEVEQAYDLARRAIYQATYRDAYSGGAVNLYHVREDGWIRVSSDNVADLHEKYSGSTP

`CC(C)=CC[C@]12Oc3cc(O)c([C@H]4C=C(C)C[C@H](c5ccc(O)cc5O)[C@H]4C(=O)c4ccc(O)cc4O)c(O)c3C(=O)[C@@]1(O)Oc1cc(O)ccc12` [Sanggenon C] yielded an IC50 of 4 µM.

The values are drawn from paper PMC3303154 (2011).
